Reference: patent US10837062B2, “Method for predicting a treatment response to a CRHR1 antagonist and/or a V1B antagonist in a patient with depressive and/or anxiety symptoms” (Max-Planck-Gesellschaft zur Förderung der Wissenschaften …, priority 2013, dated 2020)

Legend:
control littermates (CL) [1] = assay: REMS activity by EEG/EMG sleep recording in control littermates (CL) of CRH-COE^CNS mice; type: in vivo; conditions: CL mice of CRH-COE^CNS line; 50 mg/kg/d via drinking water
Method: (§1) Experiments were conducted with two different mouse lines of excessive central CRH secretion and their respective control littermates (CL). Mice of the CRH-COE^CNS line are characterised by CRH-overexpression within the whole CNS, whereas mice of the Cor26 CRH line display a CRH-overexpression specific to CRH-ergic neurons of the CNS. Three different CRHR1 antagonists were tested. […] In all cases, animals were left to recover from EEG/EMG-electrode implantation for two weeks, after which two days of baseline recording were initiated. Treatment with CRH-R1 antagonist or respective vehicle control commenced thereafter for five consecutive days. Antagonists were applied through the drinking water at a daily dose of 50 mg/kg body weight. EEG and EMG recordings were manually scored as wake, non-REMS (NREMS), and REMS in four second epochs by an experienced evaluator.

CRH-COE^CNS mice = assay: REMS activity by EEG/EMG sleep recording in CRH-COE^CNS mice; conditions: for REMS activity: 50 mg/kg/d via drinking water, treatment days vs baseline, significant from treatment day two (DMP-696 P<0.05; SSR125543 P≤0.035)
control littermates (CL) [2] = assay: REMS activity by EEG/EMG sleep recording in control littermates (CL) of Cor26 CRH mice; type: in vivo; conditions: CL animals of Cor26 CRH line; 50 mg/kg/d via drinking water
Method: as §1

Cor26 CRH mice = assay: REMS activity by EEG/EMG sleep recording in Cor26 CRH mice; conditions: for REMS levels / REMS activity: CRH-overexpressing Cor26 CRH mice, 50 mg/kg/d via drinking water

Row | SMILES | REMS activity in control littermates (control littermates (CL) [1]) | treatment day of strongest suppression of REMS activity (CRH-COE^CNS mice; CRH-COE^CNS animals, 50 mg/kg/d) | REMS suppression relative to baseline REMS-levels of CL (CRH-COE^CNS mice; CRH-COE^CNS mice, 50 mg/kg/d) | REMS activity (CRH-COE^CNS mice; CRH-COE^CNS mice, 50 mg/kg/day) | REMS activity (CRH-COE^CNS mice; CRH-COE^CNS mice, listed as DMP696, 50 mg/kg/day) | REMS levels in control littermates (control littermates (CL) [2]) | REMS levels / REMS activity (Cor26 CRH mice; 50 mg/kg/day) | REMS levels / REMS activity (Cor26 CRH mice; listed as CP-316311, 50 mg/kg/day) | REMS levels, area under the curve (AUC) within the light period (Cor26 CRH mice; Cor26 CRH mice, baseline vs treatment day three, P=0.006)
1 | COCC(COC)Nc1nc(C)nc2c(-c3ccc(Cl)cc3Cl)c(C)nn12 [DMP-696] | only a mild suppression | treatment day three | never exceeded baseline REMS-levels of CL | significant decrease | suppressed |  |  |  | 
2 | CCC(CC)Oc1cc(C)nc(Oc2c(C)cc(C)cc2C)c1C [CP-316,311] |  |  |  |  |  | no significant effect | weak | suppressed | significant decrease
